In ChEMBL document CHEMBL1127974, “Design, synthesis, and activity of conformationally-constrained macrocyclic peptide-based inhibitors of HIV protease” (Bioorg Med Chem Lett, 1994) one finds IC50 and EC50 data, which are given here for 19 molecules.

SMILES strings stand for the structures.

The target in assay [1] is T1, Human immunodeficiency virus type 1 protease (Human immunodeficiency virus 1, UniProt Q72874). Briefly: In vitro inhibition HIV-1 IIIB protease.
A further assay relates to MT2. Nature of the assay: Effective concentration against HIV infected MT-2 cell line. Type of assay: functional, cell-based. The settings on record: Homo sapiens.
Assay [2] deals with T1, Human immunodeficiency virus type 1 protease. Briefly: In vitro inhibitory activity of compound against HIV protease from BRU (IIIB) strain of HIV- 1 virus was determined.

Usually IC50 stands for the concentration needed to halve the response being measured. A low value points to inhibition by little substance. As usually defined, the EC50 is the concentration that produces a half-maximal response. For `CC(C)[C@H](NC(=O)c1ccc2ccccc2c1)C(=O)N[C@@H](Cc1ccccc1)[C@H](O)CN1CC2CCCCC2C[C@H]1C(=O)NC(C)(C)C` (stereo partly drawn), half-maximal inhibition in assay [1] (IC50) was put at 0.9 nM. For the same molecule, in the assay on MT2, the EC50 came to 8 nM. `CC(C)(C)NC(=O)[C@@H]1C[C@@H]2CCCC[C@@H]2CN1C[C@@H](O)[C@@H]1Cc2ccc(cc2)OCCOc2cc3ccccc3cc2C(=O)N[C@@H](CC(N)=O)C(=O)N1` displayed an IC50 in assay [1] of 13 nM. This molecule also displayed a concentration for a half-maximal effect (EC50) with MT2 of 18 nM. As to `CC(C)(C)NC(=O)[C@@H]1CCCN1C[C@@H](O)[C@@H]1Cc2ccc(cc2)OCCCCOc2cc3ccccc3cc2C(=O)N[C@@H](CC(N)=O)C(=O)N1`, 900 nM corresponded to half-maximal inhibition in assay [1] (IC50). `CC(C)[C@@H]1NC(=O)c2cc3ccccc3cc2OCCCOc2ccc(cc2)C[C@@H]([C@H](O)CN2CC3CCCCC3C[C@H]2C(=O)NC(C)(C)C)NC1=O` (stereo partly drawn): in assay [1], the IC50 came out at 5.5 nM. The molecule further came in with an EC50 with MT2 of 17 nM. Molecule `CC(C)(C)NC(=O)[C@@H]1C[C@@H]2CCCC[C@@H]2CN1C[C@@H](O)[C@H](Cc1ccccc1)NC(=O)[C@H](CC(N)=O)NC(=O)c1ccc2ccccc2n1` yielded an EC50 with MT2 of 5 nM. As to `CC(C)[C@@H]1NC(=O)/C=C\CCCCOc2ccc(cc2)C[C@@H]([C@H](O)CN2CC3CCCCC3C[C@H]2C(=O)NC(C)(C)C)NC1=O` (stereo partly drawn), it took 9 nM to reach half-maximal inhibition in assay [2] (IC50). This molecule also gave a half-maximal effective concentration (EC50) in the assay with MT2 of 31 nM.

As for `CC(C)[C@@H]1NC(=O)c2ccccc2OCCCOc2ccc(cc2)C[C@@H]([C@H](O)CN2CC3CCCCC3C[C@H]2C(=O)NC(C)(C)C)NC1=O` (stereo partly drawn), the concentration for half-maximal inhibition (IC50) in assay [1] amounted to 8 nM. The same molecule showed an EC50 with MT2 of 20 nM.

In assay [1], `CC(C)[C@@H]1NC(=O)/C=C\CCCCCOc2ccc(cc2)C[C@@H]([C@H](O)CN2CC3CCCCC3C[C@H]2C(=O)NC(C)(C)C)NC1=O` (stereo partly drawn) returned an IC50 of 25 nM. In the assay on MT2, this molecule showed an EC50 of 216 nM. Consider `CC(C)(C)NC(=O)[C@@H]1CCCN1C[C@H](O)[C@@H]1Cc2ccc(cc2)OCCCOc2cc3ccccc3cc2C(=O)N[C@@H](CC(N)=O)C(=O)N1`, for which, in assay [1], the IC50 stood at 90000 nM. Turning to `CC(C)(C)NC(=O)[C@@H]1C[C@@H]2CCCC[C@@H]2CN1C[C@@H](O)[C@@H]1Cc2ccc(cc2)OCCCOc2cc3ccccc3cc2C(=O)N[C@@H](CC(N)=O)C(=O)N1`, the IC50 in assay [1] came to 10 nM. The molecule also yielded an EC50 in the assay with MT2 of 14 nM. For `CC(C)(C)NC(=O)[C@@H]1CCCN1C[C@@H](O)[C@@H]1Cc2ccc(cc2)OCCCOc2cc3ccccc3cc2C(=O)N[C@@H](CC(N)=O)C(=O)N1`, the IC50 in assay [1] is 400 nM. The molecule `CC(C)[C@@H]1NC(=O)/C=C\CCCOc2ccc(cc2)C[C@@H]([C@H](O)CN2CC3CCCCC3C[C@H]2C(=O)NC(C)(C)C)NC1=O` (stereo partly drawn) gave an IC50 in assay [1] of 7.3 nM. The molecule also came in with an EC50 with MT2 of 36 nM. On the same counts, the results for `CC(C)[C@@H]1NC(=O)CCCCCCCOc2ccc(cc2)C[C@@H]([C@H](O)CN2CC3CCCCC3C[C@H]2C(=O)NC(C)(C)C)NC1=O` (stereo partly drawn) are 3.4 nM and 26 nM. Taken in the same sequence, the figures for `CCCCCCC(=O)N[C@H](C(=O)N[C@@H](Cc1ccccc1)[C@H](O)CN1CC2CCCCC2C[C@H]1C(=O)NC(C)(C)C)C(C)C` (stereo partly drawn) were 6 nM and 378 nM. In turn, `CC(=O)N[C@H](C(=O)N[C@@H](Cc1ccccc1)[C@H](O)CN1CC2CCCCC2C[C@H]1C(=O)NC(C)(C)C)C(C)C` (stereo partly drawn) displayed an IC50 in assay [1] of 3 nM. In addition, the 50% effective concentration (EC50) in the assay with MT2 is 29 nM.

`CC(C)[C@@H]1NC(=O)CCCCCOc2ccc(cc2)C[C@@H]([C@H](O)CN2CC3CCCCC3C[C@H]2C(=O)NC(C)(C)C)NC1=O` (stereo partly drawn): in assay [1], half-maximal inhibition (IC50) was put at 1.5 nM. In the assay with MT2, this molecule showed a concentration giving a half-maximal response (EC50) of 8 nM. In assay [1], `CC(C)(C)NC(=O)[C@@H]1CCCN1C[C@@H](O)[C@@H]1Cc2ccc(cc2)OCCOc2cc3ccccc3cc2C(=O)N[C@@H](CC(N)=O)C(=O)N1` had a half-inhibitory concentration (IC50) of 450 nM. That is a sub-micromolar value. Take `CC(C)(C)NC(=O)[C@@H]1C[C@@H]2CCCC[C@@H]2CN1C[C@@H](O)[C@@H]1Cc2ccc(cc2)OCCCCOc2cc3ccccc3cc2C(=O)N[C@@H](CC(N)=O)C(=O)N1`: in assay [1], the concentration for half-maximal inhibition (IC50) is 88 nM. Also, the response in the assay with MT2 was half-maximal at 315 nM (EC50). `CC(C)[C@@H]1NC(=O)CCCCCCOc2ccc(cc2)C[C@@H]([C@H](O)CN2CC3CCCCC3C[C@H]2C(=O)NC(C)(C)C)NC1=O` (stereo partly drawn) had a half-maximal inhibitory concentration (IC50) in assay [1] of 1 nM. The molecule further yielded an EC50 in the assay on MT2 of 4 nM.
